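Briefly, cells in 96-well plates were exposed to five compound concentrations for 48 h, and endpoints were estimated by linear interpolation. TGI denotes the concentration required for complete inhibition of growth.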
Columns and labels:
Experiment in all cases: growth of human tumour cells (NCI), 48 h
RPMI-8226 leukemia = test system: RPMI-8226 leukemia
SF-268 CNS = test system: SF-268 CNS
DU-145 prostate = test system: DU-145 prostate
A498 renal = test system: A498 renal
HCC-2998 colon = test system: HCC-2998 colon
NCI-H23 lung = test system: NCI-H23 lung
RXF 393 renal = test system: RXF 393 renal
EKVX NSCLC = test system: EKVX NSCLC
ACHN renal = test system: ACHN renal
A549 NSCLC = test system: A549 NSCLC
HT29 colon = test system: HT29 colon
KM12 colon = test system: KM12 colon
HOP-62 NSCLC = test system: HOP-62 NSCLC
HS 578T breast = test system: HS 578T breast
OVCAR-3 ovarian = test system: OVCAR-3 ovarian
HCT-15 colon = test system: HCT-15 colon
SF-295 CNS = test system: SF-295 CNS
PC-3 prostate = test system: PC-3 prostate

Structure (SMILES) | TGI (RPMI-8226 leukemia) [µM] | TGI (SF-268 CNS) [µM] | TGI (DU-145 prostate) [µM] | TGI (A498 renal) [µM] | TGI (HCC-2998 colon) [µM] | TGI (NCI-H23 lung) [µM] | TGI (RXF 393 renal) [µM] | TGI (EKVX NSCLC) [µM] | TGI (ACHN renal) [µM] | TGI (A549 NSCLC) [µM] | TGI (HT29 colon) [µM] | TGI (KM12 colon) [µM] | TGI (HOP-62 NSCLC) [µM] | TGI (HS 578T breast) [µM] | TGI (OVCAR-3 ovarian) [µM] | TGI (HCT-15 colon) [µM] | TGI (SF-295 CNS) [µM] | TGI (PC-3 prostate) [µM]
CC(C)(C)OC(=O)NC(CCC(=O)OCc1ccccc1)C(=O)NCCCO (stereo not given) | > 100 | > 100 | > 100 | > 100 | > 100 | > 100 | > 100 | > 100 | > 100 | > 100 | > 100 | > 100 | > 100 | > 100 | > 100 | > 100 |  | 
CC(C)(C)c1ccc(-n2c3nc(=O)n(-c4ccccc4CO)c(=O)c-3cc3ccccc32)cc1 |  | > 100 | > 100 | > 100 | > 100 | > 100 | 55.2 | > 100 | > 100 | > 100 | 86.8 | > 100 |  | > 100 |  | > 100 | > 100 | > 100
COC(=O)C1(C(=O)OC)Cc2ccc(C)cc2C2=C1C(=O)c1ccccc1C2=O |  | 48.9 | 36.9 |  |  | 46.1 |  | 29.4 | 31.7 | > 100 | 62.2 | 59.6 | 29 | > 100 | 14.9 | 30.1 | 36.1 | 31.3
COc1ccc2c(c1)Oc1cc(O)ccc1[C@@H]2c1ccccc1C(=O)NC(C)c1ccccc1 (stereo not given in full) | 39.1 | 52.8 |  | 32.1 | 26.6 | 35.5 | 29.9 | 31.5 | 41.1 | 42.5 | 34 | 33.9 | 35.8 |  | 34.5 | 34.6 | 28.6 | 
O=c1n(-c2ccccc2)c(=O)n2n1C1Cc3ccccc3C12 (stereo not given) | > 100 | > 100 | > 100 | > 100 |  | > 100 |  | > 100 | > 100 | > 100 | > 100 | > 100 | > 100 | > 100 | > 100 | > 100 | > 100 | > 100
COc1cc2c(cc1OC)[C@H]1C(COC(=O)c3ccccc3)CSC(=Nc3ccccc3)N1CC2 (stereo not given in full) | > 100 | > 100 |  | > 100 | > 100 | > 100 | > 100 | > 100 | > 100 | > 100 | > 100 | > 100 | > 100 |  | > 100 | > 100 | > 100 | 
COc1c(Br)cc(/C=C(\C#N)c2cccnc2)cc1Br | > 100 | > 100 | > 100 |  | > 100 | > 100 | > 100 | > 100 | > 100 | > 100 | > 100 | > 100 | > 100 |  | > 100 | > 100 | > 100 | > 100
O=C(O)CCc1cccc2c1oc1c(CCC(=O)O)cccc12 | > 100 | > 100 |  | > 100 | > 100 | > 100 | > 100 |  | > 100 | > 100 | > 100 | > 100 |  |  | > 100 | > 100 | > 100 | 
